From patent US7906507B2, “Oxadiazoanthracene compounds for the treatment of diabetes” (TransTech Pharma, Inc., priority 2008, dated 2011) come the findings set out here.

For the experiment, the target named is T1, cloned human GLP-1 receptor (Homo sapiens, UniProt P43220).
T1 construct: expressed in transfected cells; host or cells: CHO or HEK-293 cells
The experiment is described as follows: Functional cell-based assay: cAMP functional assay. Particulars: for Emax: 0.5 h, percentage relative to maximal GLP-1-induced cAMP accumulation, na = not active in the assay, read-out: % activation. On the procedure: Following overnight incubation of cells, media was removed, and compounds (at concentrations ranging from 0.0001 to 100 μM) were added to monolayer cells in Iscove's modified dulbecco's medium (IMDM), 100 μM RO 20-1724 PDE inhibitor, 0.1% BSA, 2% DMSO in a final volume of 100 μL, and incubated for 30 min at 37° C. 95% O2, 5% CO2 in a humidified incubator. cAMP was quantitated using a homogenous time-resolved fluorescence detection system (cAMP dynamic, CIS bio International).

T1 sequence (P43220 24-463): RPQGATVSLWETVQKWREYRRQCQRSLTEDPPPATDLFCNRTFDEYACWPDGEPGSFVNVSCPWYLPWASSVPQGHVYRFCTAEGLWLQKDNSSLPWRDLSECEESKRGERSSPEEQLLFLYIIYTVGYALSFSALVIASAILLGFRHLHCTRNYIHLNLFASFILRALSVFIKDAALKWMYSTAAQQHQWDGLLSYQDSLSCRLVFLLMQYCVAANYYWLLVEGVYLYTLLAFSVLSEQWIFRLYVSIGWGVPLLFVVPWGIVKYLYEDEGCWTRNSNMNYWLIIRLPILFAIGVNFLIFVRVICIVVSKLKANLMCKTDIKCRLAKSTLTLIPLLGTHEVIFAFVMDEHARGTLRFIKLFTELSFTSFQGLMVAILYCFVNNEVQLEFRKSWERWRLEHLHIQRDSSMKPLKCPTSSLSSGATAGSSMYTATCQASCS

In general, EC50 refers to the midpoint of the concentration-response curve. The low end stands for greater potency, the high end for weaker potency. Regarding `N#Cc1ccc(-c2ccc(C[C@H](NC(=O)[C@@H]3Cc4cc5c(cc4CN3CC#Cc3ccccc3)OC(c3ccc(OCc4ccc(Cl)c(Cl)c4)cc3)C(=O)N5)C(=O)O)cc2)cc1` (stereo partly drawn) [Example 7, (S)-3-(4′-Cyano-biphenyl-4-yl)-2-{[(S)-3-[4-(3,4-dichloro-benzyloxy)-phenyl]-2-oxo-6-(3-phenyl-prop-2-ynyl)-2,3,5,6,7,8-hexahydro-1H-4-oxa-1,6-diaza-anthracene-7-carbonyl]-amino}-propionic acid], the EC50 is 474 nM and the Emax worked out at 35%.

Turning to `CC(C)OC(=O)N1Cc2cc3c(cc2C[C@H]1C(=O)N[C@@H](Cc1ccc(-c2ccc(C#N)cc2)cc1)C(=O)O)NC(=O)C(c1ccc(OCc2ccc(Cl)c(Cl)c2)cc1)O3` (stereo partly drawn) [Example 8, (S)-7-[(S)-1-Carboxy-2-(4′-cyano-biphenyl-4-yl)-ethylcarbamoyl]-3-[4-(3,4-dichloro-benzyloxy)-phenyl]-2-oxo-1,2,3,5,7,8-hexahydro-4-oxa-1,6-diaza-anthracene-6-carboxylic acid isopropyl ester], the EC50 was 134 nM and the Emax was found to be 64%.

Take `CC(C)COC(=O)N1Cc2cc3c(cc2C[C@H]1C(=O)N[C@@H](Cc1ccc(-c2ccc(C#N)cc2)cc1)C(=O)O)NC(=O)C(c1ccc(OCc2ccc(Cl)c(Cl)c2)cc1)O3` (stereo partly drawn) [Example 9, (S)-7-[(S)-1-Carboxy-2-(4′-cyano-biphenyl-4-yl)-ethylcarbamoyl]-3-[4-(3,4-dichloro-benzyloxy)-phenyl]-2-oxo-1,2,3,5,7,8-hexahydro-4-oxa-1,6-diaza-anthracene-6-carboxylic acid isobutyl ester]: the EC50 is 500 nM and the Emax is 54%.

`CC(C)(C)COC(=O)N1Cc2cc3c(cc2C[C@H]1C(=O)N[C@@H](Cc1ccc(-c2ccc(C#N)cc2)cc1)C(=O)O)NC(=O)C(c1ccc(OCc2ccc(Cl)c(Cl)c2)cc1)O3` (stereo partly drawn) [Example 10, (S)-7-[(S)-1-Carboxy-2-(4′-cyano-biphenyl-4-yl)-ethylcarbamoyl]-3-[4-(3,4-dichloro-benzyloxy)-phenyl]-2-oxo-1,2,3,5,7,8-hexahydro-4-oxa-1,6-diaza-anthracene-6-carboxylic acid 2,2-dimethyl-propyl ester]: the EC50 came out at 418 nM and the Emax was found to be 51%.

Turning to `N#Cc1ccc(-c2ccc(C[C@H](NC(=O)[C@@H]3Cc4cc5c(cc4CN3C(=O)OC3CCOCC3)OC(c3ccc(OCc4ccc(Cl)c(Cl)c4)cc3)C(=O)N5)C(=O)O)cc2)cc1` (stereo partly drawn) [Example 11, (S)-7-[(S)-1-Carboxy-2-(4′-cyano-biphenyl-4-yl)-ethylcarbamoyl]-3-[4-(3,4-dichloro-benzyloxy)-phenyl]-2-oxo-1,2,3,5,7,8-hexahydro-4-oxa-1,6-diaza-anthracene-6-carboxylic acid tetrahydro-pyran-4-yl ester], the midpoint of the response, the EC50, lay at 606 nM and the Emax came out at 71%.

`N#Cc1ccc(-c2ccc(C[C@H](NC(=O)[C@@H]3Cc4cc5c(cc4CN3C(=O)C3CCC3)OC(c3ccc(OCc4ccc(Cl)c(Cl)c4)cc3)C(=O)N5)C(=O)O)cc2)cc1` (stereo partly drawn) [Example 12, (S)-3-(4′-Cyano-biphenyl-4-yl)-2-({(S)-6-cyclobutanecarbonyl-3-[4-(3,4-dichloro-benzyloxy)-phenyl]-2-oxo-2,3,5,6,7,8-hexahydro-1H-4-oxa-1,6-diaza-anthracene-7-carbonyl}-amino)-propionic acid]: it took 427 nM to reach a half-maximal effect (EC50) and the Emax was found to be 61%.

With `CC(C)C(=O)N1Cc2cc3c(cc2C[C@H]1C(=O)N[C@@H](Cc1ccc(-c2ccc(C#N)cc2)cc1)C(=O)O)NC(=O)C(c1ccc(OCc2ccc(Cl)c(Cl)c2)cc1)O3` (stereo partly drawn) [Example 13, (S)-3-(4′-Cyano-biphenyl-4-yl)-2-({(S)-3-[4-(3,4-dichloro-benzyloxy)-phenyl]-6-isobutyryl-2-oxo-2,3,5,6,7,8-hexahydro-1H-4-oxa-1,6-diaza-anthracene-7-carbonyl}-amino)-propionic acid], the EC50 was 1210 nM and the Emax came out at 59%.

In the case of `N#Cc1ccc(-c2ccc(C[C@H](NC(=O)[C@@H]3Cc4cc5c(cc4CN3S(=O)(=O)c3ccccc3)OC(c3ccc(OCc4ccc(Cl)c(Cl)c4)cc3)C(=O)N5)C(=O)O)cc2)cc1` (stereo partly drawn) [Example 14, (S)-2-({(S)-6-Benzenesulfonyl-3-[4-(3,4-dichloro-benzyloxy)-phenyl]-2-oxo-2,3,5,6,7,8-hexahydro-1H-4-oxa-1,6-diaza-anthracene-7-carbonyl}-amino)-3-(4′-cyano-biphenyl-4-yl)-propionic acid], the EC50 is 450 nM and the Emax was found to be 77%.

On to `N#Cc1ccc(-c2ccc(C[C@H](NC(=O)[C@@H]3Cc4cc5c(cc4CN3C(=O)C3CCCC3)OC(c3ccc(OCc4ccc(Cl)c(Cl)c4)cc3)C(=O)N5)C(=O)O)cc2)cc1` (stereo partly drawn) [Example 16, (S)-3-(4′-Cyano-biphenyl-4-yl)-2-({(S)-6-cyclopentanecarbonyl-3-[4-(3,4-dichloro-benzyloxy)-phenyl]-2-oxo-2,3,5,6,7,8-hexahydro-1H-4-oxa-1,6-diaza-anthracene-7-carbonyl}-amino)-propionic acid], for which the EC50 was determined as 657 nM and the Emax is 78%.

For the molecule `N#Cc1ccc(-c2ccc(C[C@H](NC(=O)[C@@H]3Cc4cc5c(cc4CN3C(=O)N3CCCCC3)OC(c3ccc(OCc4ccc(Cl)c(Cl)c4)cc3)C(=O)N5)C(=O)O)cc2)cc1` (stereo partly drawn) [Example 17, (S)-3-(4′-Cyano-biphenyl-4-yl)-2-{[(S)-3-[4-(3,4-dichloro-benzyloxy)-phenyl]-2-oxo-6-(piperidine-1-carbonyl)-2,3,5,6,7,8-hexahydro-1H-4-oxa-1,6-diaza-anthracene-7-carbonyl]-amino}-propionic acid], the EC50 was 699 nM and the Emax came to 80%.

For `N#Cc1ccc(-c2ccc(C[C@H](NC(=O)[C@@H]3Cc4cc5c(cc4CN3C(=O)OCC3CC3)OC(c3ccc(OCc4ccc(Cl)c(Cl)c4)cc3)C(=O)N5)C(=O)O)cc2)cc1` (stereo partly drawn) [Example 18, (S)-7-[(S)-1-Carboxy-2-(4′-cyano-biphenyl-4-yl)-ethylcarbamoyl]-3-[4-(3,4-dichloro-benzyloxy)-phenyl]-2-oxo-1,2,3,5,7,8-hexahydro-4-oxa-1,6-diaza-anthracene-6-carboxylic acid cyclopropylmethyl ester], the midpoint of the response, the EC50, lay at 270 nM and the Emax stood at 74.7%.

Take `N#Cc1ccc(-c2ccc(C[C@H](NC(=O)[C@@H]3Cc4cc5c(cc4CN3C(=O)O[C@@H]3CCOC3)OC(c3ccc(OCc4ccc(Cl)c(Cl)c4)cc3)C(=O)N5)C(=O)O)cc2)cc1` (stereo partly drawn) [Example 19, (S)-7-[(S)-1-Carboxy-2-(4′-cyano-biphenyl-4-yl)-ethylcarbamoyl]-3-[4-(3,4-dichloro-benzyloxy)-phenyl]-2-oxo-1,2,3,5,7,8-hexahydro-4-oxa-1,6-diaza-anthracene-6-carboxylic acid (R)-(tetrahydro-furan-3-yl) ester]: it took 181 nM to reach a half-maximal effect (EC50) and the Emax was found to be 69.9%.

As for `N#Cc1ccc(-c2ccc(C[C@H](NC(=O)[C@@H]3Cc4cc5c(cc4CN3C(=O)c3ccco3)OC(c3ccc(OCc4ccc(Cl)c(Cl)c4)cc3)C(=O)N5)C(=O)O)cc2)cc1` (stereo partly drawn) [Example 20, (S)-3-(4′-Cyano-biphenyl-4-yl)-2-{[(S)-3-[4-(3,4-dichloro-benzyloxy)-phenyl]-6-(furan-2-carbonyl)-2-oxo-2,3,5,6,7,8-hexahydro-1H-4-oxa-1,6-diaza-anthracene-7-carbonyl]-amino}-propionic acid], the EC50 turned out to be 417 nM and the Emax came out at 83.5%.
